Results published in paper PMC9065877, “Safety, tolerability and pharmacokinetics of the oligomer modulator anle138b with exposure levels sufficient for therapeutic efficacy in a murine Parkinson model: A randomised, double-blind, placebo-controlled phase 1a trial” (EBioMedicine, 2022).
Read-outs that look alike come from different tables or passages of the source.

How the values were obtained:
[1] = test system: striatal dopamine (DA) release in MI2 mice; experiment: Dose-response study in MI2 mice: striatal dopamine release by in vivo microdialysis; set-up: species or system mouse; conditions: up to 300 mg/kg/day in food
Procedure: An anle138b pharmacodynamics dose-response study was performed using MI2 mice, a novel model of α-synucleinopathy characterized by a progressive PD-like phenotype including accumulation of α-synuclein inclusions in nigrostriatal dopaminergic neurons and impairment of striatal dopamine (DA) release (Wegrzynowicz et al., 2019). The research was carried out in accordance with the Animals (Scientific Procedures) Act 1986 Amendment Regulations 2012 after the review by the University of Cambridge Animal Welfare and Ethical Review Body (AWERB), under the project license 70/8383. Anle138b treatment was commenced at 6 months, an age when impairment of striatal DA release is already observed in MI2 mice, but prior to nigral neuronal loss. […] After 2 months of treatment (at the age of 8 months), striatal release of DA was analysed using in vivo microdialysis, as previously reported (Wegrzynowicz et al., 2019). […] DA levels in the microdialysates were measured by high performance liquid chromatography with electrochemical detection, as described in (Garcia-Reitböck et al., 2010). […] The obtained chromatograms were analysed with Chromeleon Chromatography Data System (V 6·2; Dionex). […]

[2] = 28-day cynomolgus monkey toxicity study; conditions: in vivo; for Cmax: 125 mg/kg/day, read-out: Cmax at NOAEL
Source text: This trial followed the recommendations of the EMA (European Medicines Agency) (EMEA/CHMP/SWP/28367/07 Rev. 1; 20 July 2017) and the FDA (Food and Drug Administration) (Guidance for Industry: Estimating the Maximum Safe Starting Dose in Initial Clinical Trials for Therapeutics in Adult Healthy Volunteers. U.S. Department of Health and Human Services Food and Drug Administration Center for Drug Evaluation and Research (CDER) July 2005) for dose finding in a first-in-human study. The safe starting dose was set based on toxicity studies in animals. In a 28-day toxicity study in rats, the no-observed-adverse-effect-level (NOAEL) was determined to be 50 mg/kg/day (human equivalent dose of 8·1 mg/kg using the FDA factor of 6·2 according to the FDA Guidance for Industry “Estimating the Maximum Safe Starting Dose in Initial Clinical Trials for Therapeutics in Adult Healthy Volunteers”). Cmaxǀexposure at 50 mg in males were 2460ǀ25600 and in females 2680ǀ21700 ng/mL ǀ ng*h/mL. In a 28-day cynomolgus monkey toxicity study, the NOAEL was 125 mg/kg/day (human equivalent dose of 40·3 mg/kg). Cmaxǀexposure at 125 mg/kg/day were 3170ǀ15700 (males) and 2720ǀ9720 (females) ng/mL ǀ ng*h/mL. Based upon these NOAELs a safe starting dose derived from the more sensitive species (rat) was calculated using a safety factor of 10 (i.e., 0·8 mg/kg), which corresponds to a dose of approximately 50 mg assuming a body weight of 60 kg. […] Escalation between doses was planned to be flexible depending on emerging results but not to exceed an increment of 2-fold.

Brc1cccc(-c2cc(-c3ccc4c(c3)OCO4)n[nH]2)c1 [anle138b, 3-(1,3-benzodioxol-5-yl)-5-(3-bromophenyl)-1H-pyrazole]
Effect on striatal dopamine release at higher doses [1]: stabile maximal effects were observed
Cmax ([2]; female, females): 2720 ng/mL
NOAEL at 28 days ([2]; 28-day toxicity study): 125 mg/kg/day
Cmax ([2]; male, males): 3170 ng/mL
